System: post-operative adult patients
Experiment: Example 1: patient self-assessment of pain, VAS at rest
Type: in vivo, human
Method: Pain was measured by the patient's self-assessment using a Visual Analog Scale (VAS) from 0-10 with 0 being no pain and 10 being intense pain. This was measured both at rest and with movement. […] […] To account for the missing pain assessments, two missing value approaches as described in the statistical analysis plan were used to impute values. To determine the difference in overall pain at differing time-points, the area under the VAS pain curve during the first 24 hours, between 6 and 24 hours and between 12 and 24 hours were analyzed.

In the case of CC(C)Cc1ccc(C(C)C(=O)O)cc1 (stereo not drawn) [Ibuprofen, 2-(4-isobutylphenyl) propionic acid], the “VAS Score measured at Rest, % Reduction vs Placebo” value (“VAS Score … % Reduction vs Placebo” below) (400 mg, ITT, 42-Hour) is reported as −5.0%, the “VAS Score measured at Rest (median)” value (400 mg, ITT, 45-Hour) is reported as 2.4 and the “VAS Score … % Reduction vs Placebo” value (400 mg, ITT, 45-Hour) is reported as −20.0%. For the same molecule, the “VAS Score measured at Rest (median)” value (400 mg, ITT, 48-Hour) was 1.6, the “VAS Score … % Reduction vs Placebo” value (400 mg, ITT, 48-Hour) was −6.7% and the “VAS Score measured at Rest (median)” value (800 mg, EEP, 1-Hour) was 7.0. For the same molecule, the “VAS Score … % Reduction vs Placebo” value (800 mg, EEP, 1-Hour) was 0.0%, the “VAS Score measured at Rest (median)” value (800 mg, EEP, 2-Hour) was 6.0 and the “VAS Score … % Reduction vs Placebo” value (800 mg, EEP, 2-Hour) was −1.7%. For the same molecule, the “VAS Score measured at Rest (median)” value (800 mg, EEP, 3-Hour) was 5.0, the “VAS Score … % Reduction vs Placebo” value (800 mg, EEP, 3-Hour) was 0.0% and the “VAS Score measured at Rest (median)” value (800 mg, EEP, 6-Hour) was 5.0. For the same molecule, the “VAS Score … % Reduction vs Placebo” value (800 mg, EEP, 6-Hour) was −25.0%, the “VAS Score measured at Rest (median)” value (800 mg, EEP, 9-Hour) was 3.0 and the “VAS Score measured at Rest (median)” value (800 mg, EEP, 12-Hour) was 3.0. The “VAS Score … % Reduction vs Placebo” value (800 mg, EEP, 12-Hour) was 0.0%, the “VAS Score measured at Rest (median)” value (800 mg, EEP, 15-Hour) was 2.8 and the “VAS Score … % Reduction vs Placebo” value (800 mg, EEP, 15-Hour) was 6.7%. For the same molecule, the “VAS Score measured at Rest (median)” value (800 mg, EEP, 18-Hour) was 2.0, the “VAS Score … % Reduction vs Placebo” value (800 mg, EEP, 18-Hour) was 33.3% and the “VAS Score measured at Rest (median)” value (800 mg, EEP, 21-Hour) was 2.0. The “VAS Score … % Reduction vs Placebo” value (800 mg, EEP, 21-Hour) was 33.3%, the “VAS Score measured at Rest (median)” value (800 mg, EEP, 24-Hour) was 2.0 and the “VAS Score … % Reduction vs Placebo” value (800 mg, EEP, 24-Hour) was 33.3%. The “VAS Score measured at Rest (median)” value (800 mg, EEP, 27-Hour) was 2.3, the “VAS Score measured at Rest (median)” value (800 mg, EEP, 30-Hour) was 2.4 and the “VAS Score … % Reduction vs Placebo” value (800 mg, EEP, 30-Hour) was 14.3%. For the same molecule, the “VAS Score measured at Rest (median)” value (800 mg, EEP, 33-Hour) was 2.3, the “VAS Score … % Reduction vs Placebo” value (800 mg, EEP, 33-Hour) was 28.1% and the “VAS Score measured at Rest (median)” value (800 mg, EEP, 36-Hour) was 2.2. For the same molecule, the “VAS Score … % Reduction vs Placebo” value (800 mg, EEP, 36-Hour) was 15.4%, the “VAS Score measured at Rest (median)” value (800 mg, EEP, 39-Hour) was 2.7 and the “VAS Score … % Reduction vs Placebo” value (800 mg, EEP, 39-Hour) was −50.0%. For the same molecule, the “VAS Score measured at Rest (median)” value (800 mg, EEP, 42-Hour) was 1.8, the “VAS Score … % Reduction vs Placebo” value (800 mg, EEP, 42-Hour) was 10.0% and the “VAS Score measured at Rest (median)” value (800 mg, EEP, 45-Hour) was 2.0. For the same molecule, the “VAS Score … % Reduction vs Placebo” value (800 mg, EEP, 45-Hour) was 4.8%, the “VAS Score measured at Rest (median)” value (800 mg, EEP, 48-Hour) was 1.1 and the “VAS Score measured at Rest (median)” value (800 mg, ITT, 1-Hour) was 7.0. The “VAS Score … % Reduction vs Placebo” value (800 mg, ITT, 1-Hour) was 0.0%, the “VAS Score measured at Rest (median)” value (800 mg, ITT, 2-Hour) was 5.7 and the “VAS Score … % Reduction vs Placebo” value (800 mg, ITT, 2-Hour) was 6.6%. The “VAS Score measured at Rest (median)” value (800 mg, ITT, 3-Hour) was 5.0, the “VAS Score … % Reduction vs Placebo” value (800 mg, ITT, 3-Hour) was 0.0% and the “VAS Score measured at Rest (median)” value (800 mg, ITT, 6-Hour) was 4.0. The “VAS Score … % Reduction vs Placebo” value (800 mg, ITT, 6-Hour) was 0.0%, the “VAS Score measured at Rest (median)” value (800 mg, ITT, 9-Hour) was 3.0 and the “VAS Score measured at Rest (median)” value (800 mg, ITT, 12-Hour) was 2.9. For the same molecule, the “VAS Score … % Reduction vs Placebo” value (800 mg, ITT, 12-Hour) was 3.3%, the “VAS Score measured at Rest (median)” value (800 mg, ITT, 15-Hour) was 2.6 and the “VAS Score … % Reduction vs Placebo” value (800 mg, ITT, 15-Hour) was 21.2%. The “VAS Score measured at Rest (median)” value (800 mg, ITT, 18-Hour) was 2.0, the “VAS Score … % Reduction vs Placebo” value (800 mg, ITT, 18-Hour) was 33.3% and the “VAS Score measured at Rest (median)” value (800 mg, ITT, 21-Hour) was 2.0. For the same molecule, the “VAS Score … % Reduction vs Placebo” value (800 mg, ITT, 21-Hour) was 42.9%, the “VAS Score measured at Rest (median)” value (800 mg, ITT, 24-Hour) was 2.0 and the “VAS Score … % Reduction vs Placebo” value (800 mg, ITT, 24-Hour) was 33.3%. The “VAS Score measured at Rest (median)” value (800 mg, ITT, 27-Hour) was 2.2, the “VAS Score measured at Rest (median)” value (800 mg, ITT, 30-Hour) was 2.3 and the “VAS Score … % Reduction vs Placebo” value (800 mg, ITT, 30-Hour) was 14.8%. For the same molecule, the “VAS Score measured at Rest (median)” value (800 mg, ITT, 33-Hour) was 2.3, the “VAS Score … % Reduction vs Placebo” value (800 mg, ITT, 33-Hour) was 28.1% and the “VAS Score measured at Rest (median)” value (800 mg, ITT, 36-Hour) was 2.2. The “VAS Score … % Reduction vs Placebo” value (800 mg, ITT, 36-Hour) was 15.4%, the “VAS Score measured at Rest (median)” value (800 mg, ITT, 39-Hour) was 2.7 and the “VAS Score … % Reduction vs Placebo” value (800 mg, ITT, 39-Hour) was −50.0%. For the same molecule, the “VAS Score measured at Rest (median)” value (800 mg, ITT, 42-Hour) was 1.9, the “VAS Score … % Reduction vs Placebo” value (800 mg, ITT, 42-Hour) was 5.0% and the “VAS Score measured at Rest (median)” value (800 mg, ITT, 45-Hour) was 1.9. For the same molecule, the “VAS Score … % Reduction vs Placebo” value (800 mg, ITT, 45-Hour) was 5.0%, the “VAS Score measured at Rest (median)” value (800 mg, ITT, 48-Hour) was 1.3 and the “VAS Score … % Reduction vs Placebo” value (800 mg, ITT, 48-Hour) was 13.3%.

From patent publication US20150209315A1 (Cumberland Pharmaceuticals, priority 2009, published 2015)
